From patent publication EP0054756A2, “Antibacterial benzylpyrimidines” (THE WELLCOME FOUNDATION LIMITED, priority 1980, dated 1982)
≈ marks a conversion by molar mass, not a printed value. Where “and” joins values, the source holds several entries; their conditions need not be identical. Equal values may be shown once. Where a name gives a salt, the structure may show the parent alone. Read-outs that look alike come from different tables or passages of the source.

How the values were obtained:
Staph.aureus CN 491 = assay: In vitro antibacterial activity (MIC); format: cell-based; settings: for MIC: Staphylococcus aureus
St. pyogenes = assay: In vitro antibacterial activity (MIC); format: cell-based; settings: for MIC: Streptococcus pyogenes
Dihydrofolate reductase [1] = target: Dihydrofolate reductase (Neisseria gonorrhoeae, UniProt P04174); assay: biochemical; settings: N. gonorrhea enzyme; read-out: Dihydrofolate reductase inhibition, I50 x 10^8
Dihydrofolate reductase [2] = target: Dihydrofolate reductase (Escherichia coli, UniProt P0ABQ4); assay: Dihydrofolate reductase inhibition; format: biochemical, E. coli
E. coli CN 314 = assay: In vitro antibacterial activity (MIC); format: cell-based; settings: Escherichia coli, CN314
Strep.Faecalis CN 478 = assay: In vitro antibacterial activity (MIC); format: cell-based; settings: for MIC: Enterococcus faecalis, CN478
Dihydrofolate reductase [3] = target: T1, Dihydrofolate reductase (Rattus norvegicus, UniProt Q920D2); assay: Dihydrofolate reductase inhibition; format: biochemical, Rat liver
T1 construct: Rat liver; from tissue; host or cells: rat liver
T1 sequence (Q920D2 1-187): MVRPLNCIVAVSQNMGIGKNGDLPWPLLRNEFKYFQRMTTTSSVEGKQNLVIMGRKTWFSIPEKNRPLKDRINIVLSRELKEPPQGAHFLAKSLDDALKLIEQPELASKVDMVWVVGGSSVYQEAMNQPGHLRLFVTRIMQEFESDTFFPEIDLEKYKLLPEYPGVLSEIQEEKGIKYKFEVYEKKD

Staphylococcus aureus [4] = assay: In vitro MIC against bovine mastitis strains; format: cell-based; settings: "OXFORD", Internal Ref. No. 6571, read-out: Approximate MIC
[5] = LD50 intraperitoneal in male rats; settings: rat, in vivo, ip
Method: The LD50's ( expressed in rng/kg intraperitoneal) of two compounds of the present invention were determined in male rats.

Streptococcus agalactiae = assay: In vitro MIC against bovine mastitis strains; format: cell-based; settings: read-out: Approximate MIC
Source text: (§1) All organisms were isolated from the bovine udder.

[6] = test system: Streptococcus dysgalactiae; assay: In vitro MIC against bovine mastitis strains; format: cell-based; settings: read-out: Approximate MIC
Source text: as §1

Staphylococcus aureus [7] = assay: In vitro MIC against bovine mastitis strains; format: cell-based; settings: read-out: Approximate MIC
Source text: as §1

Streptococcus uberis = assay: In vitro MIC against bovine mastitis strains; format: cell-based; settings: Internal Ref. No. 359, isolated from the bovine udder, read-out: Approximate MIC
Source text: as §1

Dihydrofolate reductase [8] = target: Dihydrofolate reductase (Plasmodium berghei, UniProt Q27713); assay: biochemical; settings: P. berghei enzyme; read-out: Dihydrofolate reductase inhibition, I50 x 10^8
N. gonorrhea [9] = assay: In vitro antibacterial activity versus TMP, Wellcome test; format: cell-based; settings: activity relative to trimethoprim
N. gonorrhea [10] = assay: In vitro antibacterial activity versus TMP, Difco test; format: cell-based; settings: activity relative to trimethoprim
[11] = read-out: MIC St. pyogenes CN 10
[12] = read-out: MIC St. pyogenes S3640
[13] = Internal Ref. No. 321, isolated from the bovine udder
[14] = Internal Ref. No. 371, isolated from the bovine udder
[15] = Internal Ref. No. 366, isolated from the bovine udder
[16] = Internal Ref. No. 367, isolated from the bovine udder
[17] = Internal Ref. No. 316, isolated from the bovine udder
[18] = Internal Ref. No. 317, isolated from the bovine udder
[19] = Internal Ref. No. 348, isolated from the bovine udder
[20] = Internal Ref. No. 349, isolated from the bovine udder
[21] = Internal Ref. No. 352, isolated from the bovine udder
[22] = Internal Ref. No. 353, isolated from the bovine udder

What does the source list for `COc1cc(Cc2cnc(N)nc2N)cc(OCCSc2ccccc2)c1OC` [Example 14, 2,4-Diamino-5-(3,4-dimethoxy-5-(2-(phenylthio)ethoxy)benzyl)pyrimidine]?
MIC (Staph.aureus CN 491; CN491): 0.5 µg/mL (≈ 1.21 µM); MIC (St. pyogenes; [11]): 0.5 µg/mL (≈ 1.21 µM); MIC (St. pyogenes; [12]): 0.5 µg/mL (≈ 1.21 µM); IC50 (Dihydrofolate reductase [1]): 11.4 nM; IC50 (Dihydrofolate reductase [2]): 5.3 nM; MIC (E. coli CN 314): 1 µg/mL (≈ 2.42 µM); MIC (Strep.Faecalis CN 478): 0.5 µg/mL (≈ 1.21 µM); IC50 (Dihydrofolate reductase [3]): 37 µM

Which IC50 (Dihydrofolate reductase [2]; E. coli enzyme, read-out: Dihydrofolate reductase inhibition, I50 x 10^8) does the source give for “2,4-diamino-5-(3,4-dime-thoxy-5-(3-p-nitrophenyl-propoxy)benzyl)pyrimidine” here?
The IC50 was 17 nM.

And the IC50 (Dihydrofolate reductase [3]; Rat liver enzyme, read-out: Dihydrofolate reductase inhibition, I50 x 10^8)?
Its IC50 is 25 µM.

With `COc1cccc(CCCOc2cc(Cc3cnc(N)nc3N)cc(OC)c2OC)c1` [compound 2, 2,4-Diamino-5-(3,4-dimethoxy-5-(3-(m-methoxyphenyl)propoxy)benzyl)pyrimidine] as the compound, how does the MIC (Staphylococcus aureus [4]) read?
Its MIC is 0.025 µM (≈ 0.0106 µg/mL).

And the MIC (Staph.aureus CN 491; CN491)?
The MIC was 0.3 µg/mL (≈ 0.707 µM).

What about the MIC (St. pyogenes; [11]) of the same compound?
Its MIC is 1 µg/mL (≈ 2.36 µM).

What about the MIC (St. pyogenes; [12]) of the same compound?
The MIC was 1 µg/mL (≈ 2.36 µM).

What about the IC50 (Dihydrofolate reductase [1]) of the same compound?
The IC50 was 18 nM.

And the LD50 [5]?
Its LD50 is > 100 mg/kg.

What about the MIC (Streptococcus agalactiae; [13]) of the same compound?
Its MIC is 0.25 µM (≈ 0.106 µg/mL).

What about the MIC (Streptococcus agalactiae; [14]) of the same compound?
Its MIC is 0.75 µM (≈ 0.318 µg/mL).

What about the MIC [6, 15] of the same compound?
Its MIC is 0.75 µM (≈ 0.318 µg/mL).

And the MIC [6, 16]?
Its MIC is 0.25 µM (≈ 0.106 µg/mL).

And the MIC (Staphylococcus aureus [7]; [17])?
Its MIC is 0.025 µM (≈ 0.0106 µg/mL).

And the MIC (Staphylococcus aureus [7]; [18])?
Its MIC is 0.025 µM (≈ 0.0106 µg/mL).

And the MIC (Staphylococcus aureus [7]; [19])?
Its MIC is 0.025 µM (≈ 0.0106 µg/mL).

And the MIC (Staphylococcus aureus [7]; [20])?
The MIC was 0.025 µM (≈ 0.0106 µg/mL).

And the MIC (Staphylococcus aureus [7]; [21])?
The MIC was 0.075 µM (≈ 0.0318 µg/mL).

What about the MIC (Staphylococcus aureus [7]; [22]) of the same compound?
Its MIC is 0.025 µM (≈ 0.0106 µg/mL).

And the MIC (Streptococcus uberis)?
Its MIC is 2.5 µM (≈ 1.06 µg/mL).

What about the IC50 (Dihydrofolate reductase [8]) of the same compound?
The IC50 was 57 nM.

And the “Act., vs TMP N. gonorrhea Wellcome test” value (N. gonorrhea [9])?
The value was 3.20.

What about the IC50 (Dihydrofolate reductase [2]) of the same compound?
The IC50 was 57 nM.

And the MIC (E. coli CN 314)?
The MIC was 10 µg/mL (≈ 23.6 µM).

And the MIC (Strep.Faecalis CN 478)?
Its MIC is 0.3 µg/mL (≈ 0.707 µM).

What about the IC50 (Dihydrofolate reductase [3]) of the same compound?
The IC50 was 83 µM.

And the “Act., vs TMP N. gonorrhea Difco test” value (N. gonorrhea [10])?
Its value is 9.63.

Which results are given for `COc1cc(Cc2cnc(N)nc2N)cc(OC)c1OC` [Trimethoprim, reference compound]?
MIC (Staphylococcus aureus [4]): 1 µM (≈ 0.29 µg/mL); MIC (Staph.aureus CN 491; CN491, strain CN 491, cell prints compound/trimethoprim): 0.5 µg/mL (≈ 1.72 µM); MIC Staph.aureus CN 491 (Staph.aureus CN 491; strain CN 491, cell prints compound/trimethoprim): 0.3 ug/ml and 0.3/0.3 ug/ml and 0.5/0.5 ug/ml; MIC (St. pyogenes; strain CN 10, cell prints compound/trimethoprim, read-out: MIC St. pyogenes CN 10): 0.5 µg/mL (≈ 1.72 µM); MIC St. pyogenes CN 10 (St. pyogenes; strain CN 10, cell prints compound/trimethoprim): 0.3/0.3 ug/ml and 0.3 ug/ml; MIC (Streptococcus agalactiae; [13]): 1 µM (≈ 0.29 µg/mL); MIC (Streptococcus agalactiae; [14]): 3.3 µM (≈ 0.958 µg/mL); MIC [6, 15]: 3.3 µM (≈ 0.958 µg/mL); MIC [6, 16]: 1 µM (≈ 0.29 µg/mL); MIC (Staphylococcus aureus [7]; [17]): 1 µM (≈ 0.29 µg/mL); MIC (Staphylococcus aureus [7]; [18]): 0.33 µM (≈ 0.0958 µg/mL); MIC (Staphylococcus aureus [7]; [19]): 1 µM (≈ 0.29 µg/mL); MIC (Staphylococcus aureus [7]; [20]): 1 µM (≈ 0.29 µg/mL); MIC (Staphylococcus aureus [7]; [21]): 3.3 µM (≈ 0.958 µg/mL); MIC (Staphylococcus aureus [7]; [22]): 1 µM (≈ 0.29 µg/mL); MIC (Streptococcus uberis): 10 µM (≈ 2.9 µg/mL); MIC (E. coli CN 314): 0.1 µg/mL (≈ 0.344 µM); MIC (Strep.Faecalis CN 478): 0.1 µg/mL (≈ 0.344 µM); MIC Strep.Faecalis CN 478 (Strep.Faecalis CN 478; strain CN 478, cell prints compound/trimethoprim): 0.1 µg/mL (≈ 0.344 µM)

What does the source list for `COc1cc(Cc2cnc(N)nc2N)cc(OCCSCc2ccccc2)c1OC` [Example 15, 2,4-Diamino-5-(3,4-dimethoxy-5-(2-(benzylthio)ethoxy)benzyl)pyrimidine]?
MIC (Staph.aureus CN 491; CN491): 0.05 µg/mL (≈ 0.117 µM); MIC (St. pyogenes; [11]): 0.5 µg/mL (≈ 1.17 µM); MIC (St. pyogenes; [12]): 0.5 µg/mL (≈ 1.17 µM); IC50 (Dihydrofolate reductase [1]): 18 nM; IC50 (Dihydrofolate reductase [2]): 2 nM; MIC (E. coli CN 314): 0.5 µg/mL (≈ 1.17 µM); MIC (Strep.Faecalis CN 478): 0.1 µg/mL (≈ 0.234 µM); IC50 (Dihydrofolate reductase [3]): 47 µM

With `COc1cc(Cc2cnc(N)nc2N)cc(OCCCCOc2ccccc2)c1OC` [Example 10, 2,4-Diamino-5-(3,4-dimethoxy-5-(4-phenoxybutoxy)benzyl)pyrimidine hydrochloride] as the compound, how does the IC50 (Dihydrofolate reductase [1]) read?
Its IC50 is 19 nM.

What about the IC50 (Dihydrofolate reductase [2]) of the same compound?
The IC50 was 4 nM.

What about the IC50 (Dihydrofolate reductase [3]) of the same compound?
The IC50 was 74 µM.
